Assay results published in patent publication US20030232868A1, “Cyclic carboxylic acids as integrin antagonists” (priority 2000, published 2003).

How the values were obtained:
[1] = tested on: adhesion of Ramos cells to VCAM-1; assay: Adhesion of Ramos cells to immobilized VCAM-1 (domains 1-3) (Ramos—VCAM-1 assay); assay type: cell-based; settings: Homo sapiens, Ramos, 1 h
Source text: (§1) In Vitro Assay: Adhesion of Jurkat/Ramos Cells to Immobilized VCAM-1 (Domains 1-3)
(§2) Preparation of VCAM-1 (Extracellular Domains 1-3)
(§3) Complementary DNA (cDNA) encoding 7 domain form of VCAM-1 (GenBank accession #M60335) was obtained using Rapid-Screen™ cDNA library panels (OriGene Technologies, Inc) at Takara Gene Analysis Center (Shiga, Japan). The primers used were 5′-CCAAGGCAGAGTACGCAAAC-3′ (sense) and 5′-TGGCAGGTATTATTAAGGAG-3′ (antisense). PCR amplification of the 3 domain VCAM-1 cDNA was perform using Pfu DNA polymerase (Stratagene) with the following sets of primers: (U-VCAMd1-3) 5′-CCATATGGTACCTGATCAATTTAAAATCGAGACCACCCCAGAA-3′; (L-VCAMd1-3) 5′-CCATATAGCAATCCTAGGTCCAGGGGAGATCTCAACAGTAAA-3′. PCR cycle was 94° C. for 45 sec. 55° C. for 45 sec, 72° C. for 2 min, repeating 15 cycles. After the purification of the PCR product, the fragment was digested with KpnI-AvrII. The digested fragment was ligated into pBluescript IISK(−) (Strategene), which was linearized by digesting with KpnI-XhoI. The ligation was followed by transformation to a Dam/Dcm methylase-free E. coli strain SCS110 (Strategene) to create the donor plasmid pHH7. To direct VCAM-1 molecule into the insect cell secretory pathway, the VCAM-1 coding sequence was fused to signal peptide sequence of honeybee melittin. The resulting melittin-VCAM fusion was placed in correct orientation to the baculovirus polyhedrin promoter. Baculovirus transfer vector containing first 3-domain form VCAM-1 (pH 10) was constructed by ligation of 0.9 kb fragment from AvrII/Klenow/BclI digests of pH 7 into SalI/Klenow/BamHI digests of pMelBacB Invitrogen). Recombinant baculovirus was generated by using Bac-N-Blue™ Transfection kit (Invitrogen) according to the manufacture's instruction. The recombinant virus was amplified by infection to High-Five™ insect cells for 5-6 days, and virus titer was determined by plaque assay.
(§4) High-Five™ insect cells were pelleted in a 225 ml conical tube by centrifugation at 1000 rpm for 5 min. After discarding the supernatant, the pellet was resuspended in 1.5×10^9 pfu (MOI=5) of high-titer virus solution, followed by incubation for 1.5 hours at room temperature. The cells were pelleted again and washed once in fresh Express Five™ serum free medium. The cells were pelleted again and finally, resuspended in 200 ml of fresh Express Five TM medium, transferred to a 1,000 ml shaker flask, and incubated in a shaker at 27° C., 130 rpm, for 48 hours before the culture supernatant was collected. The purification of 3-domain form of VCAM-1 from the culture supernatant was performed by one-step anion exchange chromatography. Protein concentration was determined by using Coomassie protein assay reagent (Pierce) according to the manufacture's instruction.
(§5) Preparation of VCAM-1 Coated Microtiter Plates
(§6) Recombinant human VCAM-1 (extracellular domains 1-3) was dissolved at 1.0 μg/1 ml in PBS. Each well of the microtiter plates (Nalge Nunc International, Fluoro-nunc Cert, 437958) was coated with 100 μl of substrate or for background control with buffer alone for 15 hours at 4 C. After discarding the substrate solution, the wells were blocked using 150 μl per well of block solution Kirkegaard Perry Laboratories, 50-61-01) for 90 minutes. The plate was washed with wash buffer containing 24 mM Tris-HCl (pH 7.4), 137 mM NaCl, […] and 2 MM MnCl2 just before addition of the assay.
In Vitro Assay using Ramos Cells
Preparation of Fluorescence Labeled Ramos Cells:
(§7) Ramos cells (American Type Culture Collection, Clone CRL-1596) were cultured in RPMI 1640 medium (Nikken Bio Medical Laboratory, CM1101) supplemented with 10% fetal bovine serum (Hyclone, A-1119-L), 100 U/ml penicilin (Gibco BRL, 15140-122) and 100 μg/ml streptomycin (Gibco BRL, 15140-122) in a humidified incubator at 37° C. with 5% CO2. […]

[2] = tested on: adhesion of Jurkat cells to VCAM-1; assay: Adhesion of Jurkat cells to immobilized VCAM-1 (domains 1-3) (Jurkat—VCAM-1 assay); assay type: cell-based, human
Source text: as §1, §2, §3, §4, §5, §6
In Vitro Assay using Jurkat Cells
Preparation of Fluorescence Labeled Jurkat Cells:
as §7, with “Jurkat” for “Ramos”, “E6-1, ATCC TIB-152)” for “CRL-1596)”, “RPM” for “RPMI”

melting point	IC50 [1] [µM]	IC50 ([2]; Homo sapiens, Jurkat, 1 h) [µM]	IC50 ([2]; Cell Type Jurkat, adhesion to VCAM-1 coated plates, 1 hour at 37 C, IC50 value ranges)	SMILES
170 °C	–	–	–	COC(=O)c1ccccc1NC(=O)[C@H](CC(C)C)NC(=O)Cc1ccc(NC(=O)Nc2ccccc2C)cc1 [Example 15]
220 °C	–	–	–	COC(=O)c1cccc(NC(=O)[C@H](CC(C)C)NC(=O)Cc2ccc(NC(=O)Nc3ccccc3C)cc2)c1 [Example 16]
250 to 252 °C	–	–	–	COC(=O)c1ccc(NC(=O)[C@H](CC(C)C)NC(=O)Cc2ccc(NC(=O)Nc3ccccc3C)cc2)cc1 [Example 17, Methyl 4-([({4-[(2-toluidinocarbonyl)amino]phenyl}acetyl)L-leucin]amino)benzoate]
218 °C	–	–	–	COC(=O)Cc1ccccc1NC(=O)[C@H](CC(C)C)NC(=O)Cc1ccc(NC(=O)Nc2ccccc2C)cc1 [Example 18]
200 °C	–	–	–	COC(=O)Cc1cccc(NC(=O)[C@H](CC(C)C)NC(=O)Cc2ccc(NC(=O)Nc3ccccc3C)cc2)c1 [Example 19]
222 °C	–	–	–	COC(=O)Cc1ccc(NC(=O)[C@H](CC(C)C)NC(=O)Cc2ccc(NC(=O)Nc3ccccc3C)cc2)cc1 [Example 20]
163 to 165 °C	–	–	–	CCOC(=O)c1ccc(NC(=O)[C@H](CC(C)C)NC(=O)Cc2ccc(NC(=O)Nc3ccccc3C)cc2)c(Cl)c1 [Example 21]
139 to 141 °C	–	–	–	CCOC(=O)c1ccc(NC(=O)[C@H](CC(C)C)NC(=O)Cc2ccc(NC(=O)Nc3ccccc3C)cc2)c(OC)c1 [Example 22]
205 to 206 °C	–	–	–	COC(=O)c1ccc(NC(=O)[C@H](CC(C)C)NC(=O)Cc2ccc(NC(=O)Nc3ccccc3C)cc2)cc1Nc1ccccc1 [Example 24]
191 to 195 °C	–	–	–	COC(=O)c1ccc(NC(=O)[C@H](CC(C)C)NC(=O)Cc2ccc(NC(=O)Nc3ccccc3C)cc2)cc1Oc1ccccc1 [Example 25]
204 to 205 °C	–	–	–	COC(=O)c1cc(Cl)c(NC(=O)[C@H](CC(C)C)NC(=O)Cc2ccc(NC(=O)Nc3ccccc3C)cc2)cc1Cl [Example 26]
255 to 257 °C	2 to 10	–	–	Cc1ccccc1NC(=O)Nc1ccc(CC(=O)N[C@@H](CC(C)C)C(=O)Nc2ccc(-c3nnn[nH]3)cc2)cc1 [Example 27]
186 to 189 °C	–	–	–	CCOC(=O)C(c1ccc(NC(=O)[C@H](CC(C)C)NC(=O)Cc2ccc(NC(=O)Nc3ccccc3C)cc2)cc1)C1CCCC1 (some centres unmarked) [Example 30]
125 to 130 °C	–	–	–	CCOC(=O)Cc1csc(N(C)C(=O)[C@H](CC(C)C)NC(=O)Cc2ccc(NC(=O)Nc3ccccc3C)cc2)n1 [Example 33]
188 to 189 °C	–	–	–	Cc1ccccc1NC(=O)Nc1ccc(CC(=O)N[C@@H](CCCCNC(=O)OCc2ccccc2)C(=O)Nc2ccc(C(=O)OCc3ccccc3)cc2)cc1 [Example 35]
197 to 198 °C	–	–	–	COCCCN(CC(=O)Nc1ccc(C(=O)OC)cc1)C(=O)Cc1ccc(NC(=O)Nc2ccccc2C)cc1 [Example 36]
190 °C	–	> 10	–	Cc1ccccc1NC(=O)Nc1ccc(CC(=O)N[C@@H](CC(C)C)C(=O)Nc2ccccc2C(=O)O)cc1 [Example 39]
220 °C	–	> 10	–	Cc1ccccc1NC(=O)Nc1ccc(CC(=O)N[C@@H](CC(C)C)C(=O)Nc2cccc(C(=O)O)c2)cc1 [Example 40]
219 to 223 °C	–	< 0.5	–	Cc1ccccc1NC(=O)Nc1ccc(CC(=O)N[C@@H](CC(C)C)C(=O)Nc2ccc(C(=O)O)cc2)cc1 [Example 41]

melting point	IC50 [1] [µM]	IC50 ([2]; Homo sapiens, Jurkat, 1 h) [µM]	IC50 ([2]; Cell Type Jurkat, adhesion to VCAM-1 coated plates, 1 hour at 37 C, IC50 value ranges)	SMILES
186 to 190 °C	–	> 10	–	Cc1ccccc1NC(=O)Nc1ccc(CC(=O)N[C@@H](CC(C)C)C(=O)Nc2ccccc2CC(=O)O)cc1 [Example 42]
178 to 181 °C	–	0.5 to 2	–	Cc1ccccc1NC(=O)Nc1ccc(CC(=O)N[C@@H](CC(C)C)C(=O)Nc2cccc(CC(=O)O)c2)cc1 [Example 43]
206 °C	–	2 to 10	–	Cc1ccccc1NC(=O)Nc1ccc(CC(=O)N[C@@H](CC(C)C)C(=O)Nc2ccc(CC(=O)O)cc2)cc1 [Example 44]
154 to 158 °C	–	–	A-B	Cc1ccccc1NC(=O)Nc1ccc(CC(=O)N[C@@H](CC(C)C)C(=O)Nc2ccc(C(=O)O)cc2Cl)cc1 [Example 45]
138 to 142 °C	> 10	–	–	COc1cc(C(=O)O)ccc1NC(=O)[C@H](CC(C)C)NC(=O)Cc1ccc(NC(=O)Nc2ccccc2C)cc1 [Example 46]
178 to 180 °C	< 0.5	–	–	Cc1ccccc1NC(=O)Nc1ccc(CC(=O)N[C@@H](CC(C)C)C(=O)Nc2ccc(C(=O)O)c(Cl)c2)cc1 [Example 47]
164 to 169 °C	< 0.5	–	–	Cc1ccccc1NC(=O)Nc1ccc(CC(=O)N[C@@H](CC(C)C)C(=O)Nc2ccc(C(=O)O)c(Nc3ccccc3)c2)cc1 [Example 48]
158 to 160 °C	< 0.5	–	–	Cc1ccccc1NC(=O)Nc1ccc(CC(=O)N[C@@H](CC(C)C)C(=O)Nc2ccc(C(=O)O)c(Oc3ccccc3)c2)cc1 [Example 49]
185 to 188 °C	2 to 10	–	–	Cc1ccccc1NC(=O)Nc1ccc(CC(=O)N[C@@H](CC(C)C)C(=O)Nc2cc(Cl)c(C(=O)O)cc2Cl)cc1 [Example 50]
188 to 190 °C	2 to 10	–	–	Cc1ccccc1NC(=O)Nc1ccc(CC(=O)N[C@@H](CC(C)C)C(=O)Nc2cc(C(=O)O)cc([N+](=O)[O-])c2)cc1 [Example 51]
–	2 to 10	–	–	Cc1ccccc1NC(=O)Nc1ccc(CC(=O)N[C@@H](CC(C)C)C(=O)N2CCCc3cc(C(=O)O)ccc32)cc1 [Example 52]
206 to 208 °C	–	2 to 10	–	Cc1ccccc1NC(=O)Nc1ccc(CC(=O)N[C@@H](CC(C)C)C(=O)Nc2ccc(C(C(=O)O)C3CCCC3)cc2)cc1 (some centres unmarked) [Example 53]
178 to 180 °C	–	2 to 10	–	Cc1ccccc1NC(=O)Nc1ccc(CC(=O)N[C@@H](CC(C)C)C(=O)Nc2nc(CC(=O)O)cs2)cc1 [Example 54]
187 to 189 °C	–	2 to 10	–	Cc1ccccc1NC(=O)Nc1ccc(CC(=O)N[C@@H](CC(C)C)C(=O)Nc2nnc(CC(=O)O)s2)cc1 [Example 55]
172 to 174 °C	> 10	–	–	Cc1ccccc1NC(=O)Nc1ccc(CC(=O)N[C@@H](CC(C)C)C(=O)N(C)c2nc(CC(=O)O)cs2)cc1 [Example 56]
–	–	> 10	–	Cc1ccccc1NC(=O)Nc1ccc(CC(=O)N[C@@H](CC(C)C)C(=O)Nc2ccc3[nH]c(C(=O)O)cc3c2)cc1 [Example 57]
175 °C (dec.)	–	2 to 10	–	Cc1ccccc1NC(=O)Nc1ccc(CC(=O)N[C@@H](CC(C)C)C(=O)NC2CCC(C(=O)O)CC2)cc1 (some centres unmarked) [Example 60]
–	2 to 10	–	–	Cc1ccccc1NC(=O)Nc1ccc(CC(=O)N[C@@H](CC(C)C)C(=O)NC2CCCCC2C(=O)O)cc1 (some centres unmarked) [Example 61]
